Tested on: T1, CutA (TtCutA)
T1 construct: TtCutA^240-603
Assay: fluorescence anisotropy competition with ATP-Cy5
Format: binding, Thermothielavioides terrestris

SMILES	IC50
Nc1ncnc2c1ncn2[C@@H]1O[C@H](COP(=O)(O)OP(=O)(O)OP(=O)(O)O)[C@@H](O)[C@H]1O [ATP]	562 ± 21 nM
Nc1ccn([C@@H]2O[C@H](COP(=O)(O)OP(=O)(O)OP(=O)(O)O)[C@@H](O)[C@H]2O)c(=O)n1 [CTP]	467 ± 16 nM
Nc1nc2c(ncn2[C@@H]2O[C@H](COP(=O)(O)OP(=O)(O)OP(=O)(O)O)[C@@H](O)[C@H]2O)c(=O)[nH]1 [GTP]	1050 ± 56 nM
O=c1ccn([C@@H]2O[C@H](CO[P@@](=O)(O)O[P@@](=O)(O)OP(=O)(O)O)[C@@H](O)[C@H]2O)c(=O)[nH]1 [UTP]	537 ± 23 nM
